Earlier results on two compounds are cited in US20050153276A1 (priority 2001, published 2005).

The structures appear in SMILES notation.

For this data set, the system named is human hepatocyte and neuroblastoma cells. As to conditions: cited from earlier work.

In the case of `CCOP(=O)(OCC)Oc1ccc([N+](=O)[O-])cc1` [paraoxon], the “effect on cell metabolism (acidification rate)” value was “opposite effects on hepatocyte and neuroblastoma cell metabolism”.

As for `CCOP(=S)(OCC)Oc1ccc([N+](=O)[O-])cc1` [parathion], the “effect on cell metabolism (acidification rate)” value is “opposite effects on hepatocyte and neuroblastoma cell metabolism”.
